Columns and labels:
myelofibrosis [1] = assay: SIMPLIFY-2 Phase 3 trial: splenic response rate (SRR); format: in vivo, human; conditions: for SRR Absolute risk difference (Newcombe 95% CI): MMB vs Control
From the text: (§1) In the SIMPLIFY-2 trial (NCT02101268), the efficacy and safety of MMB was studied in anemic or thrombocytopenic subjects with myelofibrosis who were previously treated with ruxolitinib (RUX). […] Specifically, anemic or thrombocytopenic myelofibrosis patients who had and were previously treated with (RUX) (for at least 28 days) were studied over 24 weeks for response to MMB versus best available treatment (BAT), primarily RUX (89% of patients) but alternatively no treatment or other standard interventions, after which period all patients could receive extended MMB treatment. Previously treated RUX patients who either required red blood cell transfusions or RUX dose reduction with grade 3 thrombocytopenia, anemia, and/or bleeding at grade 3 or worse, with palpable spleen of at least 5 cm and without grade 2 or greater peripheral neuropathy were included in the trial. There was no lower limit for the required baseline platelet count. The primary endpoint was a reduction by at least 35% in the spleen volume at 24 weeks compared with baseline.
(§2) FIG. 8A: SIMPLIFY-1 study of MMB in a first line population previously untreated with JAKi. For SIMPLIFY-1, the goal was non-inferiority over ruxolitinib (RUX) (MMB: N=215 subjects, and RUX: N=217 subjects). FIG. 8B: SIMPLIFY-2 study of second line population of anemic or thrombocytopenic subjects previously treated with RUX (red blood cell (RBC) transfusions on RUX=64%. RUX dose adjustment for: thrombocytopenia=21%; anemia/hematoma=35%). For SIMPLIFY-2, the goal was superiority over best available treatment (BAT) (MMB: N=104 subjects, and BAT: N=52 subjects). In both SIMPLIFY-1 and SIMPLIFY: Primary endpoint: >=35% reduction in spleen volume at 24 weeks. Secondary endpoints: Total symptom score (TSS) response at 24 weeks. Effects on RBC transfusion requirements.
(§3) The SIMPLIFY 2 clinical trial data was reanalyzed for subgroups of subjects having particular baseline platelet counts in the MMB versus BAT arms of the study.
(§4) Patient data was analyzed according to the following baseline platelet count (PLT) subgroups and in particular according to a threshold PLT of 150×10^9/L: 1) PLT<50×10^9/L; 2) 50×10^9/L≤PLT<100×10^9/L; 3) 100×10^9/L≤PLT<150×10^9/L. The reanalyzed data is presented in Table 14 (SIMPLIFY 2).

myelofibrosis [2] = assay: SIMPLIFY-2 Phase 3 trial: transfusion independence and TD to TI conversion; format: in vivo, human; conditions: for TD to 12w rolling TI Absolute risk difference (Newcombe 95% CI) / TD to W24 TI Absolute risk difference (Newcombe 95% CI) / TI rate Absolute risk difference (Newcombe 95% CI): MMB vs Control
From the text: The improved outcome from MMB therapy that results from practicing the subject methods can be manifested as an improvement in one or more clinical endpoints (e.g., as described herein), such as anemia response, in spleen response and/or symptom response. By “anemia response” is meant an increase in the patient's hemoglobin level or a patient who was transfusion dependent becoming transfusion independent. Desirably, a minimum increase in hemoglobin of 0.5 g/dL, such as 1.0 g/dL 1.5 g/dL or 2.0 g/dL lasting a minimum of 8 weeks is achieved, which is the level of improvement specified in the International Working Group (IWG) consensus criteria. However, smaller, but still medically significant, increases in hemoglobin are also considered to be within the term “anemia response”. “Transfusion independence” is an anemia endpoint and refers to a subject who required no RBC transfusions over a 12 week period and had no hemoglobin levels less than 8 g/dL to 8.5 g/dL over the 12 week period. In some embodiments, the 12 week period of transfusion independence is the terminal 12 weeks of a 24 week study period. By red blood cell (RBC) transfusion independence rate at week 24 of a study is meant the proportion of subjects who were transfusion independent at week 24, excluding cases associated with clinically overt bleeding.
as §1, §2, §3, §4

[3] = SIMPLIFY 2, 50 ≤ PLT < 100 ×10^9/L
[4] = SIMPLIFY 2, 100 ≤ PLT < 150 ×10^9/L
[5] = SIMPLIFY-2, switch from Transfusion Dependent to Independent

Structure (SMILES): Cl.N#CCNC(=O)c1ccc(-c2ccnc(Nc3ccc(N4CCOCC4)cc3)n2)cc1 [MMB, N-(cyanomethyl)-4-(2-(4-morpholinophenylamino)pyrimidin-4-yl)benzamide]
- SRR Responders (myelofibrosis [1]; 50 ≤ PLT < 100 ×10^9/L): 1
- SRR proportion (Wilson 95% CI) (myelofibrosis [1]; 50 ≤ PLT < 100 ×10^9/L): 0.03
- SRR Absolute risk difference (Newcombe 95% CI) (myelofibrosis [1]; 50 ≤ PLT < 100 ×10^9/L): −0.02
- SRR Responders (myelofibrosis [1]; 100 ≤ PLT < 150 ×10^9/L): 3
- SRR proportion (Wilson 95% CI) (myelofibrosis [1]; 100 ≤ PLT < 150 ×10^9/L): 0.13
- SRR Absolute risk difference (Newcombe 95% CI) (myelofibrosis [1]; 100 ≤ PLT < 150 ×10^9/L): 0.03
- SRR Responders (myelofibrosis [1]; ITT): 7
- SRR proportion (Wilson 95% CI) (myelofibrosis [1]; ITT): 0.07
- SRR Absolute risk difference (Newcombe 95% CI) (myelofibrosis [1]; ITT): 0.01
- SRR Responders (myelofibrosis [1]; PLT < 50 ×10^9/L): 0
- SRR proportion (Wilson 95% CI) (myelofibrosis [1]; PLT < 50 ×10^9/L): 0.00
- patients TI at week 24 (myelofibrosis [2]; SIMPLIFY 2): 43%
- transfusion dependent (TD) patients at baseline who were TI at week 24 (myelofibrosis [2]; SIMPLIFY 2): 32.8%
- TD to 12w rolling TI Responders (myelofibrosis [2]; [3]): 7
- TD to 12w rolling TI proportion (Wilson 95% CI) (myelofibrosis [2]; [3]): 0.54
- TD to W24 TI Responders (myelofibrosis [2]; [3]): 6
- TD to W24 TI proportion (Wilson 95% CI) (myelofibrosis [2]; [3]): 0.46
- TI rate Responders (myelofibrosis [2]; [3]): 18
- TI rate proportion (Wilson 95% CI) (myelofibrosis [2]; [3]): 0.55
- TD to 12w rolling TI Absolute risk difference (Newcombe 95% CI) (myelofibrosis [2]; [3]): 0.27
- TD to W24 TI Absolute risk difference (Newcombe 95% CI) (myelofibrosis [2]; [3]): 0.37
- TI rate Absolute risk difference (Newcombe 95% CI) (myelofibrosis [2]; [3]): 0.15
- TD to 12w rolling TI Responders (myelofibrosis [2]; [4]): 3
- TD to 12w rolling TI proportion (Wilson 95% CI) (myelofibrosis [2]; [4]): 0.23
- TD to W24 TI Responders (myelofibrosis [2]; [4]): 4
- TD to W24 TI proportion (Wilson 95% CI) (myelofibrosis [2]; [4]): 0.31
- TI rate Responders (myelofibrosis [2]; [4]): 10
- TI rate proportion (Wilson 95% CI) (myelofibrosis [2]; [4]): 0.42
- TD to 12w rolling TI Absolute risk difference (Newcombe 95% CI) (myelofibrosis [2]; [4]): 0.03
- TD to W24 TI Absolute risk difference (Newcombe 95% CI) (myelofibrosis [2]; [4]): 0.31
- TI rate Absolute risk difference (Newcombe 95% CI) (myelofibrosis [2]; [4]): 0.42
- TD to 12w rolling TI Responders (myelofibrosis [2]; SIMPLIFY 2, ITT): 24
- TD to 12w rolling TI proportion (Wilson 95% CI) (myelofibrosis [2]; SIMPLIFY 2, ITT): 0.41
- TD to W24 TI Responders (myelofibrosis [2]; SIMPLIFY 2, ITT): 19
- TD to W24 TI proportion (Wilson 95% CI) (myelofibrosis [2]; SIMPLIFY 2, ITT): 0.33
- TI rate Responders (myelofibrosis [2]; SIMPLIFY 2, ITT): 45
- TI rate proportion (Wilson 95% CI) (myelofibrosis [2]; SIMPLIFY 2, ITT): 0.43
- TD to 12w rolling TI Absolute risk difference (Newcombe 95% CI) (myelofibrosis [2]; SIMPLIFY 2, ITT): 0.23
- TD to W24 TI Absolute risk difference (Newcombe 95% CI) (myelofibrosis [2]; SIMPLIFY 2, ITT): 0.29
- TI rate Absolute risk difference (Newcombe 95% CI) (myelofibrosis [2]; SIMPLIFY 2, ITT): 0.22
- TD to 12w rolling TI Responders (myelofibrosis [2]; SIMPLIFY 2, PLT < 50 ×10^9/L): 3
- TD to 12w rolling TI proportion (Wilson 95% CI) (myelofibrosis [2]; SIMPLIFY 2, PLT < 50 ×10^9/L): 0.50
- TD to W24 TI Responders (myelofibrosis [2]; SIMPLIFY 2, PLT < 50 ×10^9/L): 2
- TD to W24 TI proportion (Wilson 95% CI) (myelofibrosis [2]; SIMPLIFY 2, PLT < 50 ×10^9/L): 0.33
- TI rate Responders (myelofibrosis [2]; SIMPLIFY 2, PLT < 50 ×10^9/L): 2
- TI rate proportion (Wilson 95% CI) (myelofibrosis [2]; SIMPLIFY 2, PLT < 50 ×10^9/L): 0.22
- TD to 12w rolling TI Absolute risk difference (Newcombe 95% CI) (myelofibrosis [2]; SIMPLIFY 2, PLT < 50 ×10^9/L): 0.50
- TD to W24 TI Absolute risk difference (Newcombe 95% CI) (myelofibrosis [2]; SIMPLIFY 2, PLT < 50 ×10^9/L): 0.33
- TI rate Absolute risk difference (Newcombe 95% CI) (myelofibrosis [2]; SIMPLIFY 2, PLT < 50 ×10^9/L): 0.22
- transfusion dependence to independence conversion rate at week 24 (myelofibrosis [2]; SIMPLIFY 2, baseline platelet count subgroup 3 (100 to 150×10^9/L)): 46%
- ≥8 week transfusion independence rate (myelofibrosis [2]; [5]): 46.6%
- ≥12 week transfusion independence rate (myelofibrosis [2]; [5]): 46.6%
